{"source": "patent USRE32268E", "about": "“Therapeutic composition and method of therapeutically treating warm blooded animals therewith” (Strategic Medical Research Corp., priority 1983, dated 1986)", "key": {"[1]": {"test_system": "influenza A2 virus, Hong Kong strain", "assay": "antiviral potency against influenza A2 virus, Hong Kong strain, in tissue culture (baby hamster kidney cell line)", "type": "cell-based", "conditions": "for log reduction at 3 µg/mL / log reduction at 10 µg/mL: read-out: Log Decrease in Infectivity of Virus Inoculum", "description": "Well established methodology of the prior art was employed to determine the antiviral potency of compounds against influenza A2 virus, Hong Kong strain, in tissue cultures, employing the baby hamster kidney cell line (see R. L. Muldoon, L. Mezny and G. G. Jackson in Antimicrobial Agents and Chemotherapy 2:224-228, 1972). Virus infectivity was evaluated by both hemagglutination techniques and cytopathogenic effects, with identical results for each method. In Table 1 below, the virus-inhibiting effects of two low drug concentrations, 3 and 10 μg/ml, are depicted. Results are given as the log decrease in infectivity of the virus inoculum. A log decrease of 4.0 is the maximum obtainable, representing complete suppression of virus growth in the system. The virus inoculum of day 0 was always 100 times that amount required to kill 50% of the tissue culture cells (100 TCD50)."}, "herpes simplex virus": {"test_system": "herpes simplex virus", "assay": "organism not typed", "type": "cell-based"}, "[2]": {"test_system": "influenza A2/Hong Kong disease", "assay": "suppression of influenza A2/Hong Kong disease in mice", "type": "in vivo", "conditions": "infected treated, 40 mg/Kg orally, at 8 days"}, "influenza A/PR/8": {"test_system": "influenza A/PR/8", "assay": "prevention of death in mice ill with a lethal influenza A/PR/8 infection", "type": "in vivo", "conditions": "once 90 minutes before infection; for % of Population Protected / % Mortality: 8 days; for % Mortality: control 95; for Mortality Frequency at 8 Days: control 42/44", "description": "The above medication was also examined for its capacity to prevent death in mice ill with a lethal influenza A/PR/8 infection. The drug was given subcutaneously at 3 dose levels, once 90 minutes before infection."}, "[3]": {"conditions": "3 μg/ml, inoculum 100 TCD50, 4.0 is the maximum obtainable"}, "[4]": {"conditions": "10 μg/ml, inoculum 100 TCD50, 4.0 is the maximum obtainable"}, "[5]": {"conditions": "herpes simplex virus, tissue culture"}}, "note": "Read-outs that look alike come from different tables or passages of the source.", "data": [{"compound": "CC(CO[C@H]1[C@H](O)[C@@H](CO)OC(O)[C@@H]1O)CN(C)C", "note": "(stereo partly drawn) [3-O-3'-(2',N',N'-trimethylamino-n-propyl)-D-glucopyranose]", "values": [{"measurement": "log reduction at 3 µg/mL", "setting": "[1]; [3]", "result": 2.4}, {"measurement": "log reduction at 10 µg/mL", "setting": "[1]; [4]", "result": 3}]}, {"compound": "CN1CCC(O[C@@H]2[C@H]3OC(C)(C)O[C@H]3O[C@@H]2[C@H]2COC(C)(C)O2)CC1", "note": "[1,2,5,6-di-O--isopropylidene-3-O--4'-(N--methyl-piperidyl)-D-glucofuranose]", "values": [{"measurement": "IC50", "setting": "herpes simplex virus; read-out: Concentration required to exert 50% inhibition of herpes-induced plaque formation, herpes simplex virus, tissue culture", "result": "< 3", "unit": "µg/mL"}]}, {"compound": "CN(C)CCCOC[C@H]1OC(O)[C@H](O)[C@@H](O)[C@H]1O", "note": "(stereo partly drawn) [6-O-3'-(N',N'-dimethylamino-n-propyl)-D-galactopyranose]", "values": [{"measurement": "log reduction at 3 µg/mL", "setting": "[1]; [3]", "result": 1}, {"measurement": "log reduction at 10 µg/mL", "setting": "[1]; [4]", "result": 2}]}, {"compound": "CN1CCC(O[C@H]2[C@H](O)[C@@H](CO)OC(O)[C@@H]2O)CC1", "note": "(stereo partly drawn) [3-O--4'-(N--methylpiperidyl)-D-glucose, 3-O-4'-(N-methylpiperidyl)-D-glucopyranose]", "values": [{"measurement": "log reduction at 3 µg/mL", "setting": "[1]", "result": 2.5}, {"measurement": "log reduction at 10 µg/mL", "setting": "[1]", "result": 3.5}]}, {"compound": "CN(C)CCO[C@H]1[C@H](O)[C@@H](CO)OC(O)[C@@H]1O", "note": "(stereo partly drawn) [3-O-2'-(N',N'-dimethylaminoethyl)-D-glucopyranose]", "values": [{"measurement": "log reduction at 3 µg/mL", "setting": "[1]; [3]", "result": 2.5}, {"measurement": "log reduction at 10 µg/mL", "setting": "[1]; [4]", "result": 3.5}]}, {"compound": "CC(CN(C)C)OC[C@H]1OC(O)[C@H](O)[C@@H](O)[C@H]1O", "note": "(stereo partly drawn) [6-O-2'-(N',N'-dimethylaminopropyl)-D-galactose]", "values": [{"measurement": "Log Decrease in Infectivity of Virus Inoculum", "setting": "[1]; [3]", "result": 0.1, "unit": "log"}, {"measurement": "Log Decrease in Infectivity of Virus Inoculum", "setting": "[1]; [4]", "result": 0.5, "unit": "log"}]}, {"compound": "CC(CN(C)C)O[C@H]1O[C@H](CO)[C@@H](O)[C@H](O)[C@H]1O", "note": "(stereo partly drawn) [α-N,N--dimethylaminoisopropylglucoside, α-N,N-dimethylaminoisopropyl-D-glucoside]", "values": [{"measurement": "Log Decrease in Infectivity of Virus Inoculum", "setting": "[1]; [3]", "result": 1.5, "unit": "log"}, {"measurement": "Log Decrease in Infectivity of Virus Inoculum", "setting": "[1]; [4]", "result": 2.5, "unit": "log"}, {"measurement": "Concentration required to exert 50% inhibition of herpes-induced plaque formation", "setting": "herpes simplex virus; [5]", "result": 10, "unit": "µg/mL"}, {"measurement": "Concentration required to exert 100% inhibition of herpes-induced plaque formation", "setting": "herpes simplex virus; [5]", "result": "> 50", "unit": "µg/mL"}]}, {"compound": "NCCCO[C@H]1[C@H](O)[C@@H](CO)OC(O)[C@@H]1O", "note": "(stereo partly drawn) [3-O--3'-n-propylamino-D-glucose, 3-O-3'-(n-propylamino)-D-glucopyranose]", "values": [{"measurement": "IC100", "setting": "herpes simplex virus; read-out: Concentration required to exert 100% inhibition of herpes-induced plaque formation, herpes simplex virus, tissue culture", "result": 20, "unit": "µg/mL"}]}, {"compound": "3-O-2'-(N',N'-dimethylaminopropyl)-D-glucopyranose", "values": [{"measurement": "Log Decrease in Infectivity of Virus Inoculum", "setting": "[1]; [3]", "result": 1.0, "unit": "log"}, {"measurement": "Log Decrease in Infectivity of Virus Inoculum", "setting": "[1]; [4]", "result": 2.0, "unit": "log"}, {"measurement": "Concentration required to exert 50% inhibition of herpes-induced plaque formation", "setting": "herpes simplex virus", "result": 3, "unit": "µg/mL"}, {"measurement": "Concentration required to exert 100% inhibition of herpes-induced plaque formation", "setting": "herpes simplex virus", "result": "> 20", "unit": "µg/mL"}]}, {"compound": "CCN(CC)CCOC1C(C2COC(C)(C)O2)OC2OC(C)(C)OC21", "note": "[1,2:5,6-di-O-isopropylidene-3-O-2'-(N',N'-diethylaminoethyl)-D-glucofuranose]", "values": [{"measurement": "Concentration required to exert 50% inhibition of herpes-induced plaque formation", "setting": "herpes simplex virus; [5]", "result": 6, "unit": "µg/mL"}, {"measurement": "Concentration required to exert 100% inhibition of herpes-induced plaque formation", "setting": "herpes simplex virus; [5]", "result": 30, "unit": "µg/mL"}]}, {"compound": "CN(C)CCCO[C@H]1[C@H](O)[C@@H](CO)OC(O)[C@@H]1O", "note": "(stereo partly drawn) [3-O-3'-(N',N'-dimethylamino-n-propyl)-D-glucopyranose]", "values": [{"measurement": "Frequency of Normal Lungs (<170 mg)", "setting": "[2]; normal 12/21, infected control 1/21", "result": "13/21"}, {"measurement": "Average Lung Weight", "setting": "[2]; beginning 24 hours post-infection, 50% of drug 1,2-acetone-blocked, normal 160, infected control 258", "result": 177, "unit": "mg"}, {"measurement": "% Disease Suppression", "setting": "[2]; beginning 24 hours post-infection, lung weight", "result": 82, "unit": "%"}, {"measurement": "% of Population Protected", "setting": "influenza A/PR/8; 10 mg/Kg subcutaneously", "result": 14, "unit": "%"}, {"measurement": "% Mortality", "setting": "influenza A/PR/8; 10 mg/Kg subcutaneously", "result": 81, "unit": "%"}, {"measurement": "Mortality Frequency at 8 Days", "setting": "influenza A/PR/8; 10 mg/Kg subcutaneously", "result": "18/22"}, {"measurement": "% of Population Protected", "setting": "influenza A/PR/8; 40 mg/Kg subcutaneously", "result": 23, "unit": "%"}, {"measurement": "% Mortality", "setting": "influenza A/PR/8; 40 mg/Kg subcutaneously", "result": 72, "unit": "%"}, {"measurement": "Mortality Frequency at 8 Days", "setting": "influenza A/PR/8; 40 mg/Kg subcutaneously", "result": "16/22"}, {"measurement": "% of Population Protected", "setting": "influenza A/PR/8; 160 mg/Kg subcutaneously", "result": 50, "unit": "%"}, {"measurement": "% Mortality", "setting": "influenza A/PR/8; 160 mg/Kg subcutaneously", "result": 45, "unit": "%"}, {"measurement": "Mortality Frequency at 8 Days", "setting": "influenza A/PR/8; 160 mg/Kg subcutaneously", "result": "10/22"}, {"measurement": "relative antiviral potency", "setting": "[1]; influenza A2, among tested derivatives", "result": "the most potent effect"}, {"measurement": "log reduction at 3 µg/mL", "setting": "[1]", "result": 3.2}, {"measurement": "log reduction at 10 µg/mL", "setting": "[1]", "result": 4}, {"measurement": "relative antiviral potency", "setting": "herpes simplex virus", "result": "the most potent derivative"}]}, {"compound": "CCN(CC)CCO[C@H]1[C@H](O)[C@@H](CO)OC(O)[C@@H]1O", "note": "(stereo partly drawn) [3-O-2'-(N',N'-diethylaminoethyl)-D-glucose]", "values": [{"measurement": "log reduction at 3 µg/mL", "setting": "[1]; [3]", "result": 0.5}, {"measurement": "log reduction at 10 µg/mL", "setting": "[1]; [4]", "result": 1}]}]}
